Assay: In vitro human cadaver nail flux study (modified Franz permeation cells)
Type: in vitro ADME
Procedure: The general methods for determining the in vitro nail flux are known in the art. See, for example, U.S. Pat. No. 5,696,164, and references cited therein.
In vitro human cadaver nail flux studies were conducted using modified Franz non-Jacketed permeation cells. The temperature of the nail surface was maintained at 32° C. by placing the cells in a circulating water bath positioned over a stirring module. Human fingernails or toenails were stored under frozen conditions in 0.02% (w/v) sodium azide solution or selected receiver medium. Nails that were greater than 1 cm^2 in area were used for the flux studies. Nails with dorsal side facing the donor compartment were sandwiched between two layers of a closed cell polyethylene foam film. Annular ring of 2.38 cm outer diameter and […] was cut from the backinig film. The area of the donut hole (0.97 cm^2) is large enough to provide complete contact with the receiver media. The purpose of the foam backing film was to prevent any leakage of receiver medium from the cell assembly. The nails were allowed to hydrate at 32° C. overnight with 0.02% (w/v) sodium azide solution in the receiver compartment.
The following morning, nail lacquer sufficient to cover the nail surface was placed onto the dorsal side of the nail. Alternatively, a fixed amount of the lacquer can also be used. Each nail was then loaded between the donor and receiver compartments of a diffusion cell, with the ventral side of nail facing the receiver compartment, and clamped in place. The duration of nail flux and retention study varied from 3 days to 3 weeks. At predetermined sampling intervals, the entire contents of the receiver compartment were collected for drug quantitation and the receiver compartment was filled with fresh receiver solution, taking care to eliminate any air bubbles at the skin/solution interface.
The cumulative amount of drug permeated per unit area at any time t (Qt, μg/cm^2) was determined as follows: [formula] […]

| increase in flux rate (Examples II and III, 5% enhancer in Gantrez ES-335/FLC versus formulation without enhancer) | enhancement of nail flux of fluconazole (Example I, using 3-5% triacetin versus formulation without enhancer) | increase in flux rate of fluconazole by pretreatment (Example V, pretreatment with an N-methyl-pyrrolidone composition versus control solution) | SMILES |
| --- | --- | --- | --- |
| about 40% | – | – | CCCCCCCCCCCC(=O)N(CCO)CCO [L-DEA, Lauramide Diethanolamine (DEA)] |
| – | about 100% | about 70% | OC(Cn1cncn1)(Cn1cncn1)c1ccc(F)cc1F [fluconazole, Fluconazole] |
